Measurements published in patent US20220160712A1, “METHODS OF TREATING RHEUMATOID ARTHRITIS AND FOR PREDICTING THE RESPONSE TO METHOTREXATE” (CHAN ZUCKERBERG BIOHUB, INC., priority 2020, published 2022).

Key:
[1] = tested on: human gut microbiota; assay: MTX treatment of gnotobiotic mice colonized with human stool; 16S-seq and qPCR of gut microbiota; type: in vivo; details: for gut microbial community structure, ANOSIM R: p=0.006; for shift in gut microbiota, ANOSIM R: Day 0 vs. 2
[2] = tested on: complex human gut microbial community; assay: Ex vivo incubation of RA patient stool samples with MTX; type: cell-based
Method: All work was carried out in an anaerobic chamber. For each patient, stool was aliquoted into a pre-equilibrated cryovial, diluted in reduced PBS at 10 ml per 1 gram of stool, and vortexed to homogenize the sample. The sample was spun at ˜20 g for 1 minute on a mini-centrifuge to facilitate settling of sediment, and the sediment-free supernatant was then aliquoted into a new pre-equilibrated cryovial for evaluation of ex vivo growth. Growth was evaluated by inoculating liquid BHI with 1:50 dilution of this fecal slurry, with OD600 readings performed every 15 minutes for 48 hours with a 2-minute shake prior to each reading. Samples were treated with MTX 100 μg/ml or an equal volume of DMSO at time zero. Each patient's fecal slurry and treatment was evaluated in quadruplicate. Samples from four individuals (Donors 2, 4, 5, and 6) underwent 16S sequencing and analysis at 0 and 24 hours after of treatment with either DMSO or MTX treatments (4 replicates per treatment group) as described in the section titled “16S-seq of humanized mouse gut microbiota.”
Reads that were not already demultiplexed were demultiplexed using QIIME (Caporaso et al., 2010) v1.9.1 (split_libraries_fastq.py). For all reads except NYU RA patient samples, QIIME2 (Bolyen et al., 2019)(v 2020.2) was used to trim reads, denoise the data, and create a feature table using the following commands: qiime cutadapt trim-paired, qiime dada2 denoise-paired, qiime feature-table filter-samples. Within QIIME2, taxonomy was assigned using the DADA2 et al., (2016), Nat Methods 13, 581-583) implementation of the RDP Naïve Bayesian classifier (Wang, Q., et al., (2007), Appl Environ Microbiol 73, 5261-5267) using the DADA2-formatted SILVA v128 training set; taxonomic assignments to the species level were chosen by exact match of the ASV to the reference database, and where multiple matches were present, all are reported. For figures and in the text, genus and species assignments are reported when available, and when neither was available, the family taxonomic assignment was included; a unique ASV identifier is also reported. This ASV identifier can be used to look up the full taxonomic assignment from kingdom to species and the associated sequence variant in Table S2B. A phylogenetic tree was constructed in QIIME2 using the command: phylogeny align-to-tree-mafft-fasttree. The QIIME2R package was used to import QIIME2 artefacts into R (https://github.com/jbisanz/qiime2R). For RA patient samples from NYU, reads were demultiplexed using QIIME (Caporaso et al., 2010) v1.9.1 (split_libraries_fastq.py) before denoising and processing with DADA2 (Callahan et al., 2016a) v1.1.5 under MRO v3.2.5. Taxonomy was assigned using the DADA2 implementation of the RDP classifier (Wang et al., 2007) using the DADA2-formatted SILVA v128 training set (benjjneb.github.io/dada2/assign.html). Low abundance taxa were filtered out […] as well as ASVs that could not be assigned taxonomy past the kingdom level. Diversity metrics were generated using Vegan (v2.5-6) and Phyloseq (v1.30.0) (McMurdie, P.J., and Holmes, S. (2013), PLoS One 8, e61217), with principal coordinate analysis (PCoA) or principal components analysis (PCA) carried out with Ape (v5.3) or Vegan, respectively. Analyses were carried out on either: (1) centered log2-ratio (clr) normalized taxonomic abundances calculated as Aclr=[log2(A1/ga), log2(A2/ga), . . . log2(An/ga),], where A is a vector of non-zero read counts and ga is the geometric mean of all values of A, or (2) relative abundance calculated as proportion of reads. ANOSIM and PERMANOVA were used to detect changes in community composition using counts from rarefied data and Bray-Curtis distances. DESeq2 (v1.26.0) (Love, M. I., et al., (2014), Genome Biol 15, 550) was used to determine differentially abundant taxa on raw count data. Some ASVs were reported to have log2 fold changes that were 20 or higher. […]

[3] = Donor 2, individually housed mice, MTX 50 mg/kg
[4] = combined gnotobiotic experiments, multi-factor design, padj<0.05, DESeq
[5] = MTX 100 μg/ml, 24 hours, 4 ex vivo communities, padj<0.01

Compound: CN(Cc1cnc2nc(N)nc(N)c2n1)c1ccc(C(=O)N[C@@H](CCC(=O)O)C(=O)O)cc1 [MTX, methotrexate]
- Total colonization (16S copy number per gram stool) ([1]; Donor 1 (healthy) humanized mice, oral vehicle, 1 mg/kg or 50 mg/kg MTX, 4 days): comparable between groups
- microbial richness (number of ASVs) ([1]; Donor 1 humanized mice, oral vehicle, 1 mg/kg or 50 mg/kg MTX, 4 days): comparable between groups
- number of low-dose ASVs also altered in a consistent direction in the high-dose group ([1]; Donor 1 mice, 1 mg/kg and 50 mg/kg): 19
- gut microbial community structure, ANOSIM R ([1]; Donor 1 mice, after 1 day of treatment): 0.60
- gut microbial community structure, ANOSIM R ([1]; Donor 1 mice, final day of treatment): 0.75
- number of bacterial genera altered ([1]; Donor 1 mice, high-dose MTX 50 mg/kg): 14
- Bacteroidetes phylum compared to vehicle controls ([1]; Donor 1 mice, high-dose MTX 50 mg/kg oral, Day 4 DESeq padj=0.001): significantly decreased
- number of amplicon sequence variants (ASVs) altered ([1]; Donor 1 mice, high-dose MTX 50 mg/kg, DESeq padj<0.01, Day 4): 81
- number of ASVs significantly altered ([1]; Donor 1 mice, low-dose MTX 1 mg/kg): 26
- Bacteroidetes longitudinal trend, slope (generalized linear mixed-effects model) ([1]; Donor 1 mice, p=0.007): −0.066
- Microbial richness ([1]; Donor 2 (treatment naive RA patient), individually housed mice, MTX 50 mg/kg, p=0.4): comparable between groups
- number of ASVs with changed abundance [1, 3]: 23
- number of genera with changed abundance [1, 3]: 8
- phylum level changes [1, 3]: No phylum level changes were detected
- ASV23 (Bacteroides faecichinchillae/faecis/finegoldii/thetaiotaomicron) abundance ([1]; Donor 2, individually housed mice, high-dose MTX (FIG. 7B)): reduced
- ASV296 (Lachnoclostridium) abundance ([1]; Donor 2, individually housed mice, high-dose MTX (FIG. 7C)): reduced
- Dielma fastidiosa (ASV72) abundance ([1]; Donor 2, individually housed mice, high-dose MTX (FIG. 7D)): decreased
- ASV908 (Paraprevotella) abundance ([1]; Donor 2, individually housed mice, high-dose MTX (FIG. 7E)): increased
- number of ASVs with consistent shifts overlapping between route and rescue ([1]; Donor 3 mice, MTX 50 mg/kg): 41
- shift in gut microbiota, ANOSIM R ([1]; Donor 3 mice, rescue experiment (oral MTX with or without folic acid), p=0.002): 0.99
- shift in gut microbiota, ANOSIM R ([1]; Donor 3 mice, route experiment (oral or IP MTX 50 mg/kg), p=0.007): 0.89
- number of ASVs differentially abundant [1, 4]: 61
- number of genera differentially abundant [1, 4]: 31
- number of phyla differentially abundant [1, 4]: Four
- a-diversity ([1]; combined gnotobiotic experiments, p>0.05, ANOVA): not affected
- number of genera with significant shifts in abundance ([2]; MTX 100 μg/ml): 17
- Actinobacteria abundance [2, 5]: increased
- Bacteroidetes abundance [2, 5]: decreased
- lag phase ([2]; MTX 100 μg/ml, 48 hours): significant delay
- carrying capacity ([2]; MTX 100 μg/ml, 48 hours, p=1.9×10-6, paired Student's t-test): significant decrease
- richness (16S-seq of endpoint samples) ([2]; MTX 100 μg/ml, 4 patient samples): significant decrease
- number of ASVs with significant shifts in abundance ([2]; MTX 100 μg/ml, padj<0.01, DESeq): 20
- growth of complex microbial communities ([2]; stool of 30 MTX-naive patients, MTX 100 μg/ml vs vehicle, 48 hours): significantly impaired
